These results are taken from patent US4250178A, “Amides derived from carboxyl-5 pyrimidines” (Delalande S.A., priority 1978, dated 1981).

Where a name gives a salt, the structure may show the parent alone.

Data set [1] has as its system apomorphine straightening. Nature of the data set: test of antagonism to apomorphine straightening in mice, intraperitoneal (Gouret). The format is in vivo. Conditions: Mus musculus, ip, read-out: Apomorphine straightening ED 50.
Data set [2] is described as follows: acute toxicity in mice, intraperitoneal (Miller and Tainter). The note with it: mouse, in vivo, ip, read-out: Acute toxicity (mice) LD 50. From the text: The acute toxicity was studied in mice intraperitoneally and the lethal doses estimated according to the method described by Miller and Tainter in Proc. Soc. Exper.

On to `CCN1CCCC1CNC(=O)c1cnc(C)nc1OC(C)C` (stereo not drawn) [compound 780561], for which the ED50 in data set [1] turned out to be 3.3 mg/kg. The LD50 in data set [2] was 170 mg/kg.
`CCN1CCC[C@H]1CNC(=O)c1cnc(C)nc1OC` [compound 780648]: in data set [1], the ED50 was found to be 3.2 mg/kg. The LD50 in data set [2] worked out at 200 mg/kg.
For `CCOc1nc(C)ncc1C(=O)NCCN(CC)Cc1ccccc1` [compound 780656], in data set [1], the ED50 was 6 mg/kg. In addition, the LD50 in data set [2] was determined as 140 mg/kg.
With `COc1nc(C)ncc1C(=O)NCC1CCCN1C` (stereo not drawn) [compound 780680], in data set [1], the ED50 worked out at 7.2 mg/kg. In addition, the LD50 in data set [2] stood at 275 mg/kg.
Consider `COc1nc(C)ncc1C(=O)NCCN1CCN(c2ccc(F)cc2)CC1` [compound 780686], for which the ED50 in data set [1] was found to be 10 mg/kg. The LD50 in data set [2] was determined as 115 mg/kg.
As for `CCCc1ncc(C(=O)NCC2CCCN2CC)c(OC)n1` (stereo not drawn) [compound 780700], the ED50 in data set [1] was found to be 17 mg/kg. In addition, the LD50 in data set [2] came out at 200 mg/kg.
For `C=CCN1CCCC1CNC(=O)c1cnc(C)nc1OC` (stereo not drawn) [compound 780784], the ED50 in data set [1] was determined as 5.5 mg/kg. The LD50 in data set [2] is 280 mg/kg.
Turning to `COc1nc(C)ncc1C(=O)NCC1CCCN1CC1CCCCC1` (stereo not drawn) [compound 780836], the ED50 in data set [1] is 9 mg/kg. Also, in data set [2], the LD50 amounted to 140 mg/kg.
With `CCN(CCNC(=O)c1cnc(C)nc1OC)CC1CCCCC1` [compound 780866], the ED50 in data set [1] amounted to 4.7 mg/kg. In addition, in data set [2], the LD50 stood at 120 mg/kg.
As to `CCN(CCNC(=O)c1cnc(C)nc1OC)Cc1ccc(F)cc1` [compound 780886], in data set [1], the ED50 stood at 10 mg/kg. The LD50 in data set [2] was 140 mg/kg.
For `CCOc1nc(C)ncc1C(=O)NCCN(CC)Cc1ccc(F)cc1` [compound 780887], the ED50 in data set [1] is 1 mg/kg. Also, in data set [2], the LD50 turned out to be 140 mg/kg.
On to `CCOc1nc(C)ncc1C(=O)NC[C@@H]1CCCN1CC` [compound 780905], for which the ED50 in data set [1] was determined as 0.88 mg/kg. The LD50 in data set [2] turned out to be 175 mg/kg.
For `CCN1CCCC1CNC(=O)c1cnc(C(C)C)nc1OC` (stereo not drawn) [compound 780907] the same measures were 10 mg/kg and 120 mg/kg.
For `CCOc1nc(C)ncc1C(=O)NCC1CCCN1C` (stereo not drawn) [compound 781017] the same measures were 4.1 mg/kg and 150 mg/kg.
Take `CCOc1nc(CC)ncc1C(=O)NCC1CCCN1C` (stereo not drawn) [compound 781021, 4-ethoxy 2-ethyl 5-(1-methylpyrrolidin-2-yl)methylamino carbonyl pyrimidine, fumarate]: the ED50 in data set [1] was 10.5 mg/kg. Moreover, the LD50 in data set [2] is 115 mg/kg.
Turning to `CCOc1nc(CC)ncc1C(=O)NCC1CCCN1CC` (stereo not drawn) [compound 781022], the ED50 in data set [1] came to 3 mg/kg. Besides, the LD50 in data set [2] is 140 mg/kg.
For `CCOc1nc(N(C)C)ncc1C(=O)NC[C@@H]1CCCN1CC` [compound 781170] the same measures were 2.3 mg/kg and 120 mg/kg.
On to `CCN1CCC[C@H]1CNC(=O)c1cnc(N(C)C)nc1OC` [compound 781171], for which, in data set [1], the ED50 was 3 mg/kg. In data set [2], the LD50 stood at 100 mg/kg.
